Experimental data published in the NIST ThermoML archive (doi:10.1016/j.fluid.2005.07.009).

How the values were obtained:
[1] = molar heat capacity at constant pressure; details: 101.33 kPa, Small sample (50 mg) DSC
[2] = Molar enthalpy of transition or fusion; details: Crystal; DSC
[3] = Crystal; DTA

CCCCCCCCN [1-octanamine]
[1]
Details	molar heat capacity at constant pressure [J/K/mol]
214.08 K, Crystal	167.97
215.55 K, Crystal	170.58
217.65 K, Crystal	171.84
218.54 K, Crystal	174.15
220.18 K, Crystal	175.59
221.56 K, Crystal	175.94
223.07 K, Crystal	176.5
224.56 K, Crystal	177.92
226.18 K, Crystal	179.15
227.54 K, Crystal	180.21
229.16 K, Crystal	180.94
230.51 K, Crystal	183.42
232.12 K, Crystal	185.1
233.53 K, Crystal	186.36
235.26 K, Crystal	187
236.54 K, Crystal	188.74
238.13 K, Crystal	189.62
239.53 K, Crystal	191.53
241.11 K, Crystal	193.65
242.56 K, Crystal	195.03
244.04 K, Crystal	196.53
245.1 K, Crystal	197.38
246.25 K, Crystal	197.77
247.23 K, Crystal	198.38
248.63 K, Crystal	203.31
249.05 K, Crystal	203.59
249.65 K, Crystal	203.61
251.8 K, Crystal	204.04
252.23 K, Crystal	204.62
253.02 K, Crystal	206.62
295.09 K, Liquid	304.31
295.53 K, Liquid	304.33
296.13 K, Liquid	304.35
296.41 K, Liquid	304.94
297.1 K, Liquid	304.99
297.32 K, Liquid	305.36
298.16 K, Liquid	305.42
298.58 K, Liquid	305.98
299.02 K, Liquid	306.08
299.35 K, Liquid	306.45
300.13 K, Liquid	306.53
300.53 K, Liquid	306.69
301.18 K, Liquid	307.19
301.52 K, Liquid	307.31
302.16 K, Liquid	307.33
302.56 K, Liquid	307.36
303.28 K, Liquid	307.81
303.51 K, Liquid	308.08
304.44 K, Liquid	308.1
304.71 K, Liquid	308.11
304.99 K, Liquid	308.47
305.64 K, Liquid	308.51
306.11 K, Liquid	308.52
306.59 K, Liquid	308.6
307.38 K, Liquid	308.63
307.5 K, Liquid	308.83
308.05 K, Liquid	308.92
308.54 K, Liquid	309.05
309.16 K, Liquid	309.12
309.24 K, Liquid	309.24
310.24 K, Liquid	309.3
310.53 K, Liquid	309.35
311.07 K, Liquid	309.39
311.51 K, Liquid	310.16
312.64 K, Liquid	310.21
313.22 K, Liquid	310.76

Details	Molar enthalpy of transition or fusion [kcal/mol]
[2]	8.3

CCCCCCCCCCCO [1-undecanol]
Details	Molar enthalpy of transition or fusion [kcal/mol]	Triple point temperature [K]
[2]	7.31	–
[3]	–	289.63

[1]
Details	molar heat capacity at constant pressure [J/K/mol]
208.41 K, Crystal	193.11
209.57 K, Crystal	193.3
210.11 K, Crystal	194.69
211.02 K, Crystal	194.71
212.12 K, Crystal	196.33
213.87 K, Crystal	198.62
214.48 K, Crystal	201.14
215.51 K, Crystal	201.98
216.84 K, Crystal	205.69
217.02 K, Crystal	206.89
218.35 K, Crystal	208.79
219.08 K, Crystal	211.05
220.29 K, Crystal	213.58
221.74 K, Crystal	215.54
222.1 K, Crystal	216.27
223.31 K, Crystal	218.06
224.39 K, Crystal	219.4
225.72 K, Crystal	221.14
226.26 K, Crystal	221.42
227.04 K, Crystal	223.37
228.49 K, Crystal	225.69
229.28 K, Crystal	228.09
230 K, Crystal	228.5
231.02 K, Crystal	229.81
232.16 K, Crystal	232.96
233.13 K, Crystal	234.38
234.75 K, Crystal	235.74
235.83 K, Crystal	237.03
236.92 K, Crystal	238.89
237.34 K, Crystal	238.93
238.6 K, Crystal	239.94
239.8 K, Crystal	239.99
241.66 K, Crystal	243.63
243.34 K, Crystal	245.99
244.18 K, Crystal	246.89
246.11 K, Crystal	250.54
297.08 K, Liquid	405.86
298.17 K, Liquid	407.32
299.23 K, Liquid	408.96
300.25 K, Liquid	409.93
301.38 K, Liquid	411.68
302.21 K, Liquid	412.61
303.18 K, Liquid	413.77
304.11 K, Liquid	414.87
305.18 K, Liquid	415.8
306.27 K, Liquid	417.37
307.49 K, Liquid	418.89
308.58 K, Liquid	419.76
309.32 K, Liquid	421.18
310.02 K, Liquid	422.07
311.09 K, Liquid	423.23
312.51 K, Liquid	425.11
313.48 K, Liquid	426.38
314.66 K, Liquid	427.93
315.71 K, Liquid	429.81
316.18 K, Liquid	430
318.29 K, Liquid	432.46
320.24 K, Liquid	435.26
321.15 K, Liquid	436.27
323.33 K, Liquid	439.56

CCCCCCCCCO [nonan-1-ol]
Details	Molar enthalpy of transition or fusion [kcal/mol]	Triple point temperature [K]
[2]	5.87	–
[3]	–	268.1

CCCCCCCCO [octan-1-ol]
Details	Triple point temperature [K]
[3]	258.03
